US4584291A, “9-deoxy-9-tetrazolyl-derivatives of clavulanic acid, their preparation and their use” (Beecham Group p.l.c., priority 1980, dated 1986)
In brackets after ≈: the same amount, converted by molar mass.

Key:
St. Aureus Russell [1] = assay: standard MIC test, antibacterial activity of compound alone; type: cell-based, Staphylococcus aureus; conditions: for MIC: Staphylococcus aureus
Source text: (§1) In a standard MIC test the following antibacterial activities were obtained.

K. aerogenes E70 [2] = assay: as above; type: cell-based, Klebsiella aerogenes; conditions: for MIC: Klebsiella aerogenes
Source text: as §1

E.coli JT39 = assay: as above; type: cell-based, Escherichia coli; conditions: for MIC: Escherichia coli
Source text: as §1

St. Aureus Russell [3] = assay: standard MIC test, synergy of tetrazolyl derivatives with amoxycillin; type: cell-based, Staphylococcus aureus
K. aerogenes E70 [4] = assay: as above; type: cell-based, Klebsiella aerogenes
E. coli JT39 = assay: as above; type: cell-based, Escherichia coli
Source text: In a standard MIC test the following data were obtained for the synergistic activity of tetrazolyl derivatives with amoxycillin.

[5] = amoxycillin plus compound at 1.0 μg/ml
[6] = amoxycillin plus compound at 5.0 μg/ml

Molecule	MIC (St. Aureus Russell [1]) [µg/mL]	MIC (K. aerogenes E70 [2]) [µg/mL]	MIC (E.coli JT39) [µg/mL]	MIC amoxycillin (St. Aureus Russell [3]; [5]) [µg/mL]	MIC amoxycillin (St. Aureus Russell [3]; [6]) [µg/mL]	MIC amoxycillin (K. aerogenes E70 [4]; [5]) [µg/mL]	MIC amoxycillin (K. aerogenes E70 [4]; [6]) [µg/mL]	MIC amoxycillin (E. coli JT39; [5]) [µg/mL]	MIC (antibacterial activity) (St. Aureus Russell [1]) [µg/mL]	MIC (antibacterial activity) (K. aerogenes E70 [2]) [µg/mL]	MIC (antibacterial activity) (E.coli JT39) [µg/mL]	further results
O=C(O)C1C(=CCn2ncnn2)OC2CC(=O)N21 (centres unmarked) [Example 7, Lithium 9-tetrazol-2-yldoexyclavulanate]	16 (≈ 63.7 µM)	16 (≈ 63.7 µM)	16 (≈ 63.7 µM)									
Nc1nnnn1CC=C1OC2CC(=O)N2C1C(=O)[O-].[Li+] (centres unmarked) [Example 10, Lithium 9-(5-aminotetrazolyl)deoxyclavulanate]				0.3	0.04	3.1	0.4	4.0	8	31.2	8	
CCOC(=O)c1nnnn1CC=C1OC2CC(=O)N2C1C(=O)O (centres unmarked) [Example 14, Lithium 9-(5-ethoxycarbonyltetrazol-1-yl)deoxyclavulanate]	8 (≈ 24.7 µM)	31.2 (≈ 96.5 µM)	8 (≈ 24.7 µM)									
O=C(O)c1nnnn1CC=C1OC2CC(=O)N2C1C(=O)O (centres unmarked) [Example 15, Disodium 9-(5-carboxylatotetrazol-1-yl)deoxyclavulanate]	16	31.2	16									
O=C(O)C1C(=CCn2cnnn2)OC2CC(=O)N21 (centres unmarked) [Example 18, Lithium 9-(tetrazol-1-yl)deoxyclavulanate]	16 (≈ 63.7 µM)	62.5 (≈ 249 µM)	16 (≈ 63.7 µM)									
Cc1nnnn1CC=C1OC2CC(=O)N2C1C(=O)O (centres unmarked) [Example 25, Potassium 9-(5'-methyltetrazol-1'-yl)-9-deoxyclavulanate]	16	62.5	8									
O=C(O)C1C(=CCn2nnnc2-c2ccccc2)OC2CC(=O)N21 (centres unmarked) [Example 27, Potassium 9-(5'-phenyltetrazol-1'-yl)-9-deoxyclavulanate]	4	> 500	125									
O=CNc1nnnn1CC=C1OC2CC(=O)N2C1C(=O)[O-].[Li+] (centres unmarked) [Example 35, Lithium 9-(5-formamidotetrazolyl)deoxyclavulanate]				0.6	0.16	6.2	1.6	8.0	16	62.5	31.2	MIC amoxycillin (E. coli JT39; [6]): 4.0 µg/mL
CC1(C)S[C@@H]2[C@H](NC(=O)[C@H](N)c3ccc(O)cc3)C(=O)N2[C@H]1C(=O)O [amoxycillin, reference compound]												MIC amoxycillin (St. Aureus Russell [3]; amoxycillin alone): 500 µg/mL; MIC amoxycillin (K. aerogenes E70 [4]; amoxycillin alone): 1000 µg/mL; MIC amoxycillin (E. coli JT39; amoxycillin alone): 2000 µg/mL
Sodium 9-(5-acetamidotetrazolyl)deoxyclavulanate [Example 12]				0.3	0.08	3.1	1.5	4.0	16	31.2	16	MIC amoxycillin (E. coli JT39; [6]): ≤ 0.5 µg/mL
